Assay: xn = mol fraction of the nth substance listed
Conditions: 101 kPa, Liquid; for speed of sound: Pulse-echo method; for mass density: Vibrating tube method

ClCCCCCCCl [1,6-dichlorohexane] + CCCCCCCCCCCC
Conditions	mass density [kg/m3]	speed of sound [m/s]
278.15 K, x1 = 0.0498	769.76	1355
278.15 K, x1 = 0.1003	780.41	1353.3
278.15 K, x1 = 0.1497	791.41	1352
278.15 K, x1 = 0.2527	815.84	1350.4
278.15 K, x1 = 0.4017	855.12	1350.4
278.15 K, x1 = 0.502	884.56	1351.9
278.15 K, x1 = 0.6	916.3	1355.1
278.15 K, x1 = 0.7011	952.18	1360.1
278.15 K, x1 = 0.7986	990.33	1366.8
278.15 K, x1 = 0.8998	1034.17	1376.1
278.15 K, x1 = 0.9493	1057.53	1381.5
278.15 K, x1 = 0.9691	1067.22	1383.7
278.15 K, x1 = 1	1082.7	1387.4
283.15 K, x1 = 0.0498	766.11	1335.5
283.15 K, x1 = 0.1003	776.72	1333.9
283.15 K, x1 = 0.1497	787.68	1332.7
283.15 K, x1 = 0.2527	812	1331.2
283.15 K, x1 = 0.4017	851.13	1331.4
283.15 K, x1 = 0.502	880.48	1333.3
283.15 K, x1 = 0.6	912.1	1336.7
283.15 K, x1 = 0.7011	947.86	1342
283.15 K, x1 = 0.7986	985.89	1348.9
283.15 K, x1 = 0.8998	1029.59	1358.4
283.15 K, x1 = 0.9493	1052.88	1364
283.15 K, x1 = 0.9691	1062.53	1366.2
283.15 K, x1 = 1	1077.97	1370
288.15 K, x1 = 0.0498	762.46	1315.7
288.15 K, x1 = 0.1003	773.04	1314.3
288.15 K, x1 = 0.1497	783.94	1313.2
288.15 K, x1 = 0.2527	808.17	1311.8
288.15 K, x1 = 0.4017	847.16	1312.4
288.15 K, x1 = 0.502	876.39	1314.5
288.15 K, x1 = 0.6	907.89	1318.1
288.15 K, x1 = 0.7011	943.53	1323.6
288.15 K, x1 = 0.7986	981.42	1330.7
288.15 K, x1 = 0.8998	1024.98	1340.4
288.15 K, x1 = 0.9493	1048.19	1346.1
288.15 K, x1 = 0.9691	1057.82	1348.4
288.15 K, x1 = 1	1073.22	1352.3
293.15 K, x1 = 0.0498	758.82	1296.3
293.15 K, x1 = 0.1003	769.35	1294.9
293.15 K, x1 = 0.1497	780.2	1293.9
293.15 K, x1 = 0.2527	804.33	1292.7
293.15 K, x1 = 0.4017	843.16	1293.5
293.15 K, x1 = 0.502	872.29	1295.9
293.15 K, x1 = 0.6	903.68	1299.7
293.15 K, x1 = 0.7011	939.19	1305.4
293.15 K, x1 = 0.7986	976.96	1312.8
293.15 K, x1 = 0.8998	1020.39	1322.7
293.15 K, x1 = 0.9493	1043.52	1328.4
293.15 K, x1 = 0.9691	1053.11	1330.9
293.15 K, x1 = 1	1068.47	1334.8
298.15 K, x1 = 0.0498	755.16	1276.8
298.15 K, x1 = 0.1003	765.66	1275.5
298.15 K, x1 = 0.1497	776.45	1274.6
298.15 K, x1 = 0.2527	800.48	1273.7
298.15 K, x1 = 0.4017	839.16	1274.7
298.15 K, x1 = 0.502	868.18	1277.3
298.15 K, x1 = 0.6	899.46	1281.3
298.15 K, x1 = 0.7011	934.87	1287.3
298.15 K, x1 = 0.7986	972.49	1294.8
298.15 K, x1 = 0.8998	1015.8	1304.9
298.15 K, x1 = 0.9493	1038.85	1310.8
298.15 K, x1 = 0.9691	1048.42	1313.2
298.15 K, x1 = 1	1063.74	1317.3
303.15 K, x1 = 0.0498	–	1257.6
303.15 K, x1 = 0.1003	–	1256.4
303.15 K, x1 = 0.1497	–	1255.5
303.15 K, x1 = 0.2527	–	1254.7
303.15 K, x1 = 0.4017	–	1256.1
303.15 K, x1 = 0.502	–	1258.8
303.15 K, x1 = 0.6	–	1263.1
303.15 K, x1 = 0.7011	–	1269.2
303.15 K, x1 = 0.7986	–	1277
303.15 K, x1 = 0.8998	–	1287.3
303.15 K, x1 = 0.9493	–	1293.3
303.15 K, x1 = 0.9691	–	1295.8
303.15 K, x1 = 1	–	1299.9

— the NIST ThermoML archive (doi:10.1021/je034177v)
